SMILES strings stand for the structures. Read-outs that look alike come from different tables or passages of the source.

The subject of assay [1] is immature ovariectomized rats. Briefly: Estrogen agonistic activity: increase in uterine weight in immature ovariectomized rats. The format is in vivo, rat. Conditions: 3 days, percent of ovariectomized + vehicle group; for change in vivo at 3 mg/kg / change in vivo at 10 mg/kg: Rattus norvegicus, 72 h; for change in vivo at 3 mg/kg: daily dose 3 mg/kg. The method, then: Twenty-one-day-old immature female rats are bilaterally ovariectomized under light ether anaesthesia and, after post-operative rest for 7 days, are randomized into different treatment groups. Each rat receives the compound of the invention once daily for 3 consecutive days on days 28-30 of age. A separate group of animals receiving only the vehicle for similar duration serves as control. A autopsy 24 h after the last treatment on day 31 of age, vaginal smear of each rat is taken and uterus is carefully exised, gently blotted, weighed and fixed for histology and histomorphometry using image analysis. Premature opening of vagina, cornification of vaginal epitelium, increase in uterine fresh weight, total uterine and endometrial area and uterine luminal epithelial cell height are taken as parameters for evaluation of estrogen agonistic activity in comparision to rats of vehicle control group.

For assay [2], the system named is immature ovariectomized rats. The assay can be described thus: Estrogen antagonistic activity: inhibition in 17α-ethynylestradiol induced uterine weight gain in immature ovariectomized rats. Conditions: daily dose 10 mg/kg with 0.02 mg/kg 17-alfa-ethynylestradiol, 3 days; for inhibition in vivo at 10 mg/kg/day: Rattus norvegicus, 72 h, read-out: Percent inhibition in 17α-ethynylestradiol induced uterine weight gain. The format is in vivo, rat. As to the method: Twenty-one-day-old immature female rats are bilaterally ovariectomized under light ether anaesthesia and after post-operative rest for 7 days, are randomized into different treatment groups. Each rat receives the compounds of the invention and 0.02 mg/kg dose of 17-alfa-ethynylestradiol in 10% ethanol-distilled water once daily for 3 consecutive days on days 28-30 of age. A separate group of animals receiving only 17-alfa-ethynylestradiol (0.02 mg/kg) in 10% ethanol-distilled water for similar duration are used for comparison. At autopsy on day 31 of age, vaginal smear of each rat is taken and uterus is carefully excised, gently blotted, weighed and fixed for histology and histomorphometry using image analysis. Inhibition in 17-alfa-ethynylestradiol-induced premature opening of vagina, cornification of vaginal epithelium, increase in uterine fresh weight, total uterine and endometrial area and uterine luminal epithelial cell height are taken as parameters for evaluation of estrogen antagonistic activity.

A further assay concerns MCF-7 cells. Briefly: Antiproliferative/cytotoxic activity in cultured MCF-7 cells (SRB assay). In kind it is cell-based. The note with it: Homo sapiens, MCF7, 48 h, MCF-7, 48 h. The method, then: The procedure is based on the following methods: New calorimetric assay for anticancer drug screening, Skehan et al., J Natn Cancer Inst, 82,1107, 1990 and Feasibility of a high-flux anticancer drug screen using a diverse panel of cultured human tumor cell lines, J Natn Cancer Inst, 83,757, 1991.
A fully confluent flask of MCF-7 cells in trypsinized and 10^4 cells/well are plated in a 96 welled flat bottomed plate in 200 μl Minimum Essential Medium (MEM), pH 7.4 and allowed to attach for 24 h at 37° C. in a humidified CO2 incubator. Subsequently, the compound of invention dissolved in DMSO or ethanol is added at a specified concentration and further incubated for 48 h as before. The cells are then fixed in 50 μl cold 50% TCA and incubated for 1 h at 4° C. The supernatant is discarded and the plate is washed five times with deionized water and air-dried. 100 μl of 0.4% (w/v) Sulforhodamine B (SRB) in 1% acetic acid is added to each well and incubated at room temperature for 30 minutes. Unbound SRB is removed by five washes with chilled 1% acetic acid and the plate is air-dried. 200 μl of unbuffered 10 mM Tris base is added to solublize the bound stain for 5 minutes at room temperature and O.D. is read at 560 nm in a plate reader. The graph is plotted between O.D. and concentration and LC50 is calculated with respect to tamoxifen, which is used as a positive control.
On the technique in general: In SRB staining, fixed cells bind dye roughly in proportion to their protein.

Another assay deals with adult female rats. Briefly: Post-coital antifertility efficacy in adult female rats. In kind it is in vivo, rat. Conditions: oral. The text has this:
Adult female rats are caged overnight with coeval males of proven fertility and their vaginal smears are checked on the following morning. The day of presence of spermatozoa in the vaginal smear is taken as day 1 of pregnancy. Mated rats are isolated and randomized into various treatment groups and treated orally with the compound of invention or the vehicle on days 1-7/1-5 post-coitum. Animals of all the groups are autopsied on day 10 post-coitum and number and status of corpora lutea and implantation sites in each rat are recorded. The compounds of the present invention are considered active if there is complete absence of implantations in the uterus of all rats, in comparison to presence of normal implantations in the uterus of rats of vehicle control group.

Assay [3] deals with chick fetal bones in culture. The assay can be described thus: Inhibition in PTH-induced resorption of 45Ca from chick fetal bones in culture (antiresorptive activity in vitro). The note with it: Gallus gallus, 96 h, 100 μM; PTH-induced 45Ca resorption, 96 h culture; read-out: T/C ratio. In kind it is cell-based. As to the method: 5 μl of each concentration are used for evaluation of antiresorptive activity in vitro. In control experiments, 5 μl of appropriate solvent is used in lieu of the test compound. Femur bones are isolated from chick embryos on day 11 post-ovulation. The adhering soft connective tissue is completely removed. Each femur bone is then placed in a drop of phosphate buffered saline (PBS) and is transferred to BGJb culture medium containing ^45CaCl2 and incubated for 2 h. Labeled femur bones are washed 2-3 times with PBS and transferred to BGJb medium containing parathyroid hormone and cultured for 96 h in the presence or absence of the compound of invention or the vehicle in BGJb medium. Contralateral femur of each fetus serves as corresponding control. Culture medium with the respective treatment in each well is changed after 48 h. On termination of the culture at 96 h, bones are transferred to 0.1 N HCl for 24 h. Radioactivity due to ^45Ca in the spent medium collected at 48 and 96 h of culture and HCl extract at 96 h of culture is quantified by Liquid Scintillation Spectrophotometer in 10 ml of the scintillation fluid. Bone resorbing activity is expressed as percentage of ^45Ca released into the culture medium and the effect of the compound of invention as percent of the corresponding contra-lateral control or T/C ratio as shown below: [formula]
Appropriate solvents are selected from solvents like water, physiological saline, phosphate buffered saline, phosphate buffer, DMSO alone or in a suitable combination thereof.

In the next assay the target is T1, estrogen receptors (Rattus norvegicus, UniProt P06211).
T1 construct: Aliquot of uterine cytosol (200 μl; 2 uteri per ml) prepared in TEA buffer; from tissue; host or cells: uterine cytosol of immature estradiol-primed 20-21 day old rats
T1 sequence (P06211 1-600): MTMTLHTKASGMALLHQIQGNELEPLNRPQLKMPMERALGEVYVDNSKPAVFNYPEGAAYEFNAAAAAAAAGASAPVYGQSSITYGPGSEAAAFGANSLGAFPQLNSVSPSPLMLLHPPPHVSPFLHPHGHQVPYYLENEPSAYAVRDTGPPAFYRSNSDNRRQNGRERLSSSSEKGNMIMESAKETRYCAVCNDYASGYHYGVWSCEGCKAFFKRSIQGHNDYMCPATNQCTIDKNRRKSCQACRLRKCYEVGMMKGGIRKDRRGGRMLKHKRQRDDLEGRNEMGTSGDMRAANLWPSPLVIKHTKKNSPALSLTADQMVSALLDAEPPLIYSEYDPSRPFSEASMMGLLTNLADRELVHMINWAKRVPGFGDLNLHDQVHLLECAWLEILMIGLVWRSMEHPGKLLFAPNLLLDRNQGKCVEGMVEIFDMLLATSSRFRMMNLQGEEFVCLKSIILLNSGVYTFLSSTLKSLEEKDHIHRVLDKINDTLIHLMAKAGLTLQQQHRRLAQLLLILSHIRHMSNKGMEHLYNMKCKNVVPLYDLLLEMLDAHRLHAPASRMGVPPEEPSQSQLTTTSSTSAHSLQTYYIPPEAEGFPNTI
The assay can be described thus: Relative binding affinity (RBA) to estrogen receptors, 3H-estradiol competition assay. More on the design: key: % of 17-beta-estradiol binding affinity (estradiol = 100). The note with it: relative to 17-beta-estradiol (=100, percentage value); rat uterine cytosol, 3H-E2, 18 hrs at 4° C. The method, then:
The relative binding affinity (RBA) of the compounds for estrogen receptor is determined by competition assay, employing ^3H-estradiol (^3H-E2) as the radioligand. The test ligands and ^3H-E2 are incubated at 4° C. with cystol estrogen receptors obtained from uteri of immature estradoil-primed (1 μg/rat 24 h before autopsy) 20-21 days old rats. Aliquot of uterine cytosol (200 μl; 2 uteri per ml) prepared in TEA buffer (10 mM Tris, 1.5 mM EDTA, 0.02% sodium azide, pH 7.4) are incubated in duplicate with a fixed concentration of ^3H-E2 in the absence or presence of various concentrations of the competitor substance dissolved in 30 μl of the TEA buffer containing DMF as co-solvent (final concentration of DMF in the incubation mixture never exceeded 5%) for 18 hrs at 4° C. At the end of this period, dextran coated charcoal (5% Norit 0.5% dextran) suspension in 100 μl of TEA buffer is added to each tube, briefly vortexed and allowed to stand for 15 minutes at 4° C. The mixture is centrifuged at 800 g for 10 minutes and the supernatants counted for radioactivity in 10 ml of a dioxane-based scintillation fluid. RBA of the text compound is computed from a graph plotted between percent bound radioactivity verses log concentration of the test substance. […] This when multiplied with 100 gives the percentage value designated as RBA.

Where [4] appears, read: daily dose 10 mg/kg, days 1-7 post-coitum.

With `c1ccc2c(c1)SCCc1c-2n(CCCN2CCCCC2)c2ccccc12` [Example number 7, 12-[3-(Piperidine-1-yl)propyl]-6,7-dihydro-12H-benzothiepino [5,4-b]indole], the change in vivo at 3 mg/kg in assay [1] turned out to be 24.6%. Besides, the change in vivo at 10 mg/kg in assay [1] (daily dose 10 mg/kg) was 109%. Also, the inhibition in vivo at 10 mg/kg/day in assay [2] came to 15.4%. In the assay with MCF-7 cells (read-out: LC50, Test-1), the CC50 was 46 µM. Further, the “% Efficacy” value in the assay on adult female rats (setting [4]) is on record as “Inactive”.

Take `c1ccc2c(c1)SCCc1c-2n(CCCCCN2CCCC2)c2ccccc12` [Example number 12, 12-[5-(Pyrrolidine-1-yl)pentyl]-6,7-dihydro-12H-benzothiepino [5,4-b]indole]: the change in vivo at 3 mg/kg in assay [1] was 3.4%. Also, the CC50 in the assay with MCF-7 cells (read-out: LC50, Test-1) is 63 µM. In addition, the “% Efficacy” value in the assay on adult female rats (setting [4]) was “Inactive”. Moreover, in assay [3], the activity at 100 µM amounted to 78%. The RBA on estrogen receptors is reported as 0.88.

Regarding `CCCCN(C)CCCCCn1c2c(c3ccccc31)CCSc1ccccc1-2.O=C(O)/C=C/C(=O)O` [Example number 16, 12-[5-(N-butylmethylamino)pentyl]-6,7-dihydro-12H-benzothiepino [5,4-b]indole fumaric acid Salt], the “Percent increase in uterine weight” value in assay [1] (daily dose 10 mg/kg) came out at 2.00%. The “Percent inhibition in 17α-ethynylestradiol induced uterine weight gain” value in assay [2] is given as 2.00%. Also, the RBA at estrogen receptors is below 0.001.

`Oc1ccc2c(c1)SCCc1c-2n(CCCCCN2CCCCC2)c2ccccc12` [Example number 24, 3-Hydroxy-12-[5-(piperidine-1-yl)pentyl]-6,7-dihydro-12H-benzothiepino [5,4-b]indole]: the CC50 in the assay with MCF-7 cells (read-out: LC50, Test-4) amounted to 27 µM. For the same compound, in the assay with adult female rats (setting [4]), the “% Efficacy” value is “Inactive”. Besides, in assay [3], the activity at 100 µM was 78%. For the same compound, the RBA at estrogen receptors is on record as 10.75.

With `Oc1ccc2c(c1)SCCc1c-2n(CCCCCN2CCCCC2)c2ccc(O)cc12` [Example number 35, 3,9-Dihydroxy-12-[5-(piperidine-1-yl)pentyl]-6,7-dihydro-12H-benzothiepino [5,4-b]indole], the CC50 with MCF-7 cells (read-out: LC50, Test-4) worked out at 40 µM. Besides, the “% Efficacy” value in the assay on adult female rats (setting [4]) is listed as “Inactive”. In assay [3], the activity at 100 µM is 99%. For the same compound, the RBA on estrogen receptors is recorded as below 0.001.

`Oc1ccc2c(c1)SCCc1c-2n(CCCCCN2CCCC2)c2ccc(O)cc12` [Example number 36, 3,9-Dihydroxy-12-[5-(pyrrolidine-1-yl)pentyl]-6,7-dihydro-12H-benzothiepino [5,4-b]indole]: the CC50 with MCF-7 cells (read-out: LC50, Test-4) worked out at 60 µM. For the same compound, the activity at 100 µM in assay [3] stood at 118%. Also, the RBA on estrogen receptors is listed as below 0.001.

In the case of `c1ccc2c(c1)SCCc1c-2n(Cc2ccc(OCCN3CCCCC3)cc2)c2ccccc12` [Example number 39, 12-[4-(2-Piperidin-1-yl-ethoxy)benzyl]-6,7-dihydro-12H-benzothiepino [5,4-b]indole], in assay [1] (daily dose 10 mg/kg), the change in vivo at 10 mg/kg is 83.3%. Moreover, the inhibition in vivo at 10 mg/kg/day in assay [2] came to 3.7%. The “% Efficacy” value with adult female rats (setting [4]) is given as “Inactive”. For the same compound, in assay [3], the activity at 100 µM was 85%.

In the case of `c1ccc2c(c1)OCCc1c-2n(CCCCCN2CCCCC2)c2ccccc12` [Example number 49, 12-[5-(Piperidine-1-yl)pentyl]-6,7-dihydro-12H-benzoxepino[5,4-b]indole], the responders at 10 mg/kg in the assay on adult female rats (Rattus norvegicus, 240 h, daily dose 10 mg/kg, days 1-7 post-coitum) was 100%. For the same compound, in the assay on adult female rats (daily dose 5 mg/kg, days 1-5 post-coitum), the “% Efficacy” value is listed as “Inactive”. The activity at 100 µM in assay [3] is 63%.

On to `c1ccc2c(c1)OCCc1c-2n(CCCCCCN2CCCCC2)c2ccccc12` [Example number 51, 12-[6-(Piperidine-1-yl)hexyl]-6,7-dihydro-12H-benzoxepino[5,4-b]indole], for which, in assay [1], the change in vivo at 3 mg/kg was 21.9%. Also, the change in vivo at 10 mg/kg in assay [1] (daily dose 10 mg/kg) was determined as 20%. The inhibition in vivo at 10 mg/kg/day in assay [2] is 14%. For the same compound, the CC50 in the assay on MCF-7 cells (read-out: LC50, Test-1) amounted to 22.3 µM; with MCF-7 cells (read-out: LC50, Test-3), 12.8 µM. The “% Efficacy” value with adult female rats (setting [4]) is given as “Inactive”. In addition, at estrogen receptors, the RBA is 0.059.

These data come from US20050282863A1, “Novel-N substituted dihydrobenzothiepino, dihydrobenzoxepino and tetrahydro benzocyclohepta indoles as selective estrogen receptor modulators” (Council of Scientific & Industrial Research, priority 2004, published 2005).
